The supplement of paper PMC10307832

Experiments:
Assay in all cases: relative viability (nuclei count vs DMSO), 5 days (fraction); higher = more cells survive
[1] = compound: CN(C)CC1=CC(=CC=C1)N=C(C2=CC=CC=C2)C3=C(NC4=C3C=CC(=C4)C(=O)N(C)C)O + NC(=O)Nc1cc(-c2cccc(F)c2)sc1C(=O)N[C@H]1CCCNC1 [AZD7762] (partner 0.2 µM)
Outline: (§1)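 Lung cancer cell lines, seeded in 1536-well plates, were treated the following day by pin tool with a single drug or with five library-drug doses (not always all listed) in √10 steps on top of a fixed anchor-drug dose. Cells were fixed and nuclei stained in one step after 5 days, and nuclei were counted. Relative viability is the nuclei count for treated wells divided by that for vehicle wells, reported as medians of duplicate plates.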

[2] = compound: CN(C)CC1=CC(=CC=C1)N=C(C2=CC=CC=C2)C3=C(NC4=C3C=CC(=C4)C(=O)N(C)C)O + N=C(N)NC(=N)NCCc1ccccc1 [Phenformin] (partner 250 µM)
Outline: as §1

[3] = compound: CN(C)CC1=CC(=CC=C1)N=C(C2=CC=CC=C2)C3=C(NC4=C3C=CC(=C4)C(=O)N(C)C)O + CS(=O)(=O)N1CCN(Cc2cc3nc(-c4cccc5[nH]ncc45)nc(N4CCOCC4)c3s2)CC1 [Pictilisib] (partner 1 µM)
Outline: as §1

[4] = compound: CN(C)CC1=CC(=CC=C1)N=C(C2=CC=CC=C2)C3=C(NC4=C3C=CC(=C4)C(=O)N(C)C)O + Cc1nc(NC(=O)N2CCC[C@H]2C(N)=O)sc1-c1ccnc(C(C)(C)C(F)(F)F)c1 [Alpelisib] (partner 2 µM)
Outline: as §1

Cell Line: EKVX
- relative viability ([1]; first compound 0.08 µM): 0.745
- relative viability ([1]; first compound 0.253 µM): 0.727
- relative viability ([1]; first compound 2.53 µM): 0.726
- relative viability ([1]; first compound 8 µM): 0.696
- relative viability ([2]; first compound 0.08 µM): 0.239
- relative viability ([2]; first compound 0.253 µM): 0.251
- relative viability ([2]; first compound 0.8 µM): 0.221
- relative viability ([2]; first compound 2.53 µM): 0.247
- relative viability ([2]; first compound 8 µM): 0.241
- relative viability ([3]; first compound 0.08 µM): 0.425
- relative viability ([3]; first compound 0.253 µM): 0.452
- relative viability ([3]; first compound 0.8 µM): 0.384
- relative viability ([3]; first compound 2.53 µM): 0.431
- relative viability ([3]; first compound 8 µM): 0.574
- relative viability ([4]; first compound 0.08 µM): 0.878
- relative viability ([4]; first compound 0.253 µM): 0.847
- relative viability ([4]; first compound 0.8 µM): 0.843
- relative viability ([4]; first compound 2.53 µM): 0.886
- relative viability ([4]; first compound 8 µM): 0.879

Cell Line: EMC-BAC-2
- relative viability ([1]; first compound 0.08 µM): 1.23
- relative viability ([1]; first compound 0.253 µM): 1.15
- relative viability ([1]; first compound 0.8 µM): 1.27
- relative viability ([1]; first compound 2.53 µM): 1.06
- relative viability ([1]; first compound 8 µM): 1.16
- relative viability ([2]; first compound 0.08 µM): 0.496
- relative viability ([2]; first compound 0.253 µM): 0.506
- relative viability ([2]; first compound 0.8 µM): 0.504
- relative viability ([2]; first compound 2.53 µM): 0.478
- relative viability ([2]; first compound 8 µM): 0.55
- relative viability ([3]; first compound 0.08 µM): 0.545
- relative viability ([3]; first compound 0.253 µM): 0.528
- relative viability ([3]; first compound 0.8 µM): 0.552
- relative viability ([3]; first compound 2.53 µM): 0.572
- relative viability ([3]; first compound 8 µM): 0.569
- relative viability ([4]; first compound 0.08 µM): 0.763
- relative viability ([4]; first compound 0.253 µM): 0.743
- relative viability ([4]; first compound 0.8 µM): 0.71
- relative viability ([4]; first compound 2.53 µM): 0.738
- relative viability ([4]; first compound 8 µM): 0.67

Cell Line: EPLC-272H
- relative viability ([1]; first compound 0.08 µM): 0.229
- relative viability ([1]; first compound 0.253 µM): 0.252
- relative viability ([1]; first compound 0.8 µM): 0.203
- relative viability ([1]; first compound 2.53 µM): 0.302
- relative viability ([1]; first compound 8 µM): 0.214
- relative viability ([2]; first compound 0.08 µM): 0.323
- relative viability ([2]; first compound 0.253 µM): 0.283
- relative viability ([2]; first compound 0.8 µM): 0.226
- relative viability ([2]; first compound 2.53 µM): 0.302
- relative viability ([2]; first compound 8 µM): 0.347
- relative viability ([3]; first compound 0.08 µM): 0.301
- relative viability ([3]; first compound 0.253 µM): 0.331
- relative viability ([3]; first compound 0.8 µM): 0.323
- relative viability ([3]; first compound 2.53 µM): 0.347
- relative viability ([3]; first compound 8 µM): 0.457
- relative viability ([4]; first compound 0.08 µM): 0.935
- relative viability ([4]; first compound 0.253 µM): 0.872
- relative viability ([4]; first compound 0.8 µM): 0.825
- relative viability ([4]; first compound 2.53 µM): 1.06
- relative viability ([4]; first compound 8 µM): 0.856

Cell Line: H3255
- relative viability ([1]; first compound 0.08 µM): 1.08
- relative viability ([1]; first compound 0.253 µM): 0.85
- relative viability ([1]; first compound 0.8 µM): 0.842
- relative viability ([1]; first compound 2.53 µM): 0.967
- relative viability ([1]; first compound 8 µM): 0.942
- relative viability ([2]; first compound 0.08 µM): 0.44
- relative viability ([2]; first compound 0.253 µM): 0.356
- relative viability ([2]; first compound 0.8 µM): 0.338
- relative viability ([2]; first compound 2.53 µM): 0.392
- relative viability ([2]; first compound 8 µM): 0.371
- relative viability ([3]; first compound 0.08 µM): 0.548
- relative viability ([3]; first compound 0.253 µM): 0.493
- relative viability ([3]; first compound 0.8 µM): 0.386
- relative viability ([3]; first compound 2.53 µM): 0.455
- relative viability ([3]; first compound 8 µM): 0.475
- relative viability ([4]; first compound 0.08 µM): 0.781
- relative viability ([4]; first compound 0.253 µM): 0.754
- relative viability ([4]; first compound 0.8 µM): 0.635
- relative viability ([4]; first compound 2.53 µM): 0.635
- relative viability ([4]; first compound 8 µM): 0.84

Cell Line: HARA
- relative viability ([1]; first compound 0.08 µM): 0.296
- relative viability ([1]; first compound 0.253 µM): 0.351
- relative viability ([1]; first compound 0.8 µM): 0.155
- relative viability ([1]; first compound 2.53 µM): 0.258
- relative viability ([1]; first compound 8 µM): 0.324
- relative viability ([2]; first compound 0.08 µM): 0.413
- relative viability ([2]; first compound 0.253 µM): 0.454
- relative viability ([2]; first compound 0.8 µM): 0.384
- relative viability ([2]; first compound 2.53 µM): 0.412
- relative viability ([2]; first compound 8 µM): 0.373
- relative viability ([3]; first compound 0.08 µM): 0.401
- relative viability ([3]; first compound 0.253 µM): 0.472
- relative viability ([3]; first compound 0.8 µM): 0.405
- relative viability ([3]; first compound 2.53 µM): 0.466
- relative viability ([3]; first compound 8 µM): 0.412
- relative viability ([4]; first compound 0.08 µM): 0.79
- relative viability ([4]; first compound 0.253 µM): 0.824
- relative viability ([4]; first compound 0.8 µM): 0.715
- relative viability ([4]; first compound 2.53 µM): 0.788
- relative viability ([4]; first compound 8 µM): 0.713

Cell Line: HCC-15
- relative viability ([1]; first compound 0.08 µM): 1.44
- relative viability ([1]; first compound 0.253 µM): 1.2
- relative viability ([1]; first compound 0.8 µM): 1.24
- relative viability ([1]; first compound 2.53 µM): 1.4
- relative viability ([1]; first compound 8 µM): 1.31
- relative viability ([2]; first compound 0.08 µM): 0.48
- relative viability ([2]; first compound 0.253 µM): 0.462
- relative viability ([2]; first compound 0.8 µM): 0.503
- relative viability ([2]; first compound 2.53 µM): 0.419
- relative viability ([2]; first compound 8 µM): 0.431
- relative viability ([3]; first compound 0.08 µM): 0.739
- relative viability ([3]; first compound 0.253 µM): 0.768
- relative viability ([3]; first compound 0.8 µM): 0.877
- relative viability ([3]; first compound 2.53 µM): 0.819
- relative viability ([3]; first compound 8 µM): 0.774
- relative viability ([4]; first compound 0.08 µM): 0.947
- relative viability ([4]; first compound 0.253 µM): 0.802
- relative viability ([4]; first compound 0.8 µM): 0.927
- relative viability ([4]; first compound 2.53 µM): 0.937
- relative viability ([4]; first compound 8 µM): 0.954

Cell Line: HCC-44
- relative viability ([1]; first compound 0.08 µM): 1
- relative viability ([1]; first compound 0.253 µM): 0.987
- relative viability ([1]; first compound 0.8 µM): 1.03
- relative viability ([1]; first compound 2.53 µM): 0.946
- relative viability ([1]; first compound 8 µM): 1.04
- relative viability ([2]; first compound 0.08 µM): 0.179
- relative viability ([2]; first compound 0.253 µM): 0.4
- relative viability ([2]; first compound 0.8 µM): 0.185
- relative viability ([2]; first compound 2.53 µM): 0.192
- relative viability ([2]; first compound 8 µM): 0.176
- relative viability ([3]; first compound 0.08 µM): 0.645
- relative viability ([3]; first compound 0.253 µM): 0.715
- relative viability ([3]; first compound 0.8 µM): 0.585
- relative viability ([3]; first compound 2.53 µM): 0.532
- relative viability ([3]; first compound 8 µM): 0.584
- relative viability ([4]; first compound 0.08 µM): 0.787
- relative viability ([4]; first compound 0.253 µM): 0.736
- relative viability ([4]; first compound 0.8 µM): 0.768
- relative viability ([4]; first compound 2.53 µM): 0.766
- relative viability ([4]; first compound 8 µM): 0.77

Cell Line: HCC-78
- relative viability ([1]; first compound 0.08 µM): 0.464
- relative viability ([1]; first compound 0.253 µM): 0.772
- relative viability ([1]; first compound 0.8 µM): 0.568
- relative viability ([1]; first compound 2.53 µM): 0.639
- relative viability ([1]; first compound 8 µM): 0.831
- relative viability ([2]; first compound 0.08 µM): 0.642
- relative viability ([2]; first compound 0.253 µM): 0.812
- relative viability ([2]; first compound 0.8 µM): 0.675
- relative viability ([2]; first compound 2.53 µM): 0.698
- relative viability ([2]; first compound 8 µM): 0.738
- relative viability ([3]; first compound 0.08 µM): 0.197
- relative viability ([3]; first compound 0.253 µM): 0.24
- relative viability ([3]; first compound 0.8 µM): 0.24
- relative viability ([3]; first compound 2.53 µM): 0.206
- relative viability ([3]; first compound 8 µM): 0.224
- relative viability ([4]; first compound 0.08 µM): 0.364
- relative viability ([4]; first compound 0.253 µM): 0.324
- relative viability ([4]; first compound 0.8 µM): 0.356
- relative viability ([4]; first compound 2.53 µM): 0.363
- relative viability ([4]; first compound 8 µM): 0.318
